From patent publication US11845681B2, “Process and plant for treating wastewater containing micropollutants of pharmaceutical origin” (Cockerill Maintenance & Ingenierie S.A., priority 2018, dated 2023)

Columns and labels:
suspended biomass = settings: constant includes sorption, desorption and biodegradation; cited from earlier work
fixed biomass = settings: constant includes sorption, desorption and biodegradation; cited from earlier work
[1] = Purification efficiency of biologically activated carbon (BAC) columns C1 to C5; settings: for average degradation: detailed analysis on 16 molecules, over column conditions; for effect of EBCT on degradation: longer EBCTs (e.g. 19 minutes)
Excerpt: The activated carbon used was in GAC form, for example of the Norit 830W type (Cabot). According to the invention, however, several types of activated carbon may be used, by varying the nature of the carbon, the specific surface developed and the type of pores.
According to one embodiment, the GAC was conditioned for 2 months with the wastewater effluents coming from the MB-MBR before being placed in an acrylic glass column. Operation was monitored for approximately 5 months. The purpose of conditioning is to reduce the time before the breakthrough point of the filter, i.e. the moment when the adsorption capacity is exhausted and biodegradation is the dominant process.
The biological purification performance of micropollutants was evaluated according to the following methodology: • 1. Saturation of adsorption sites and verification by measuring the reduction in dissolved organic carbon; • 2. Evaluation of bacterial activity via measurements of oxygen consumption; • 3. Correlation analyzes between bacterial activity and micropollutant removal.
Based on the operational parameters selected for columns C1 to C5, the purification efficiencies of 12 of the 13 molecules indicative of the efficiency of the method are presented in FIG. 8.

Row | average degradation [1] | effect of EBCT on degradation [1] | Structure (SMILES) | Kbio, Biomass suspended (suspended biomass) | Kbio, Biomass Fixed (fixed biomass)
1 |  |  | CC(=O)Nc1ccc(S(=O)(=O)Nc2cc(C)on2)cc1 [N-acetylsulfamethoxazole] | 1.1-1.4 l/g biomass · day | 0.7-1.6 l/g biomass · day
2 |  |  | CC(C)NCC(O)COc1ccc(CC(N)=O)cc1 (stereo not shown) [Atenolol] | 0.67-0.9 l/g biomass · day | 0.53-0.67 l/g biomass · day
3 | around 50% | better degraded with longer EBCTs | CC[C@H]1OC(=O)[C@H](C)[C@@H](O[C@H]2C[C@@](C)(OC)[C@@H](O)[C@H](C)O2)[C@H](C)[C@@H](O[C@@H]2O[C@H](C)C[C@H](N(C)C)[C@H]2O)[C@](C)(OC)C[C@@H](C)C(=O)[C@H](C)[C@@H](O)[C@]1(C)O [Clarithromycin] | 0.18-0.29 l/g biomass · day | ≤0.2 l/g biomass · day
4 | around 50% | better degraded with longer EBCTs | O=C(O)Cc1ccccc1Nc1c(Cl)cccc1Cl [Diclofenac] | ≤0.1 l/g biomass · day | 1.3-1.7 l/g biomass · day
5 |  |  | NC(=O)N1c2ccccc2C=Cc2ccccc21 [Carbamazepine] | ≤0.1 l/g biomass · day | ≤0.1 l/g biomass · day

Row | Structure (SMILES) | average degradation [1] | effect of EBCT on degradation [1] | Kbio, Biomass suspended (suspended biomass) | Kbio, Biomass Fixed (fixed biomass)
6 | O=P1(N(CCCl)CCCl)NCCCO1 (stereo not shown) [cyclophosphamide] | around 50% | better degraded with longer EBCTs |  | 
